# Measured values reported in PMC8533176, “1,5-Benzodiazepin-2(3H)-ones: In Vitro Evaluation as Antiparkinsonian Agents” (Antioxidants, 2021).
# Legend:
# [1] = ABTS radical scavenging assay; format: biochemical
# Description: The mixture was stored in the dark at room temperature for 16 h. […] All the compounds tested were dissolved in EtOH. […] The degree of decolorization was calculated as the percentage reduction of absorbance. […] Trolox was used as a reference antioxidant.
# HepG2 cells = assay: Cytotoxicity, MTT assay, HepG2; format: cell-based; settings: Homo sapiens, HepG2; MTT, cytotoxicity; read-out: HepG2 IC50
# Outline: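 Cells treated with 5–200 µM compound (DMSO vehicle, four replicates) after overnight attachment. Viability read by MTT reduction (2 h, 37 °C, dark; formazan in DMSO, A570) relative to vehicle controls; IC50 from dose–response regression.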
# SH-SY5Y cells [2] = assay: Neuroprotection in the 6-OHD neurotoxicity-induced model, MTT; format: cell-based, human; settings: 6-OHD 250 µM 48 h; compounds 24 h before
# SH-SY5Y cells [3] = assay: Neuroprotection in the MPP+ neurotoxicity-induced model, MTT; format: cell-based, human; settings: MPP+ 700 µM 48 h; compounds 24 h before
# SH-SY5Y cells [4] = assay: Mitochondrial membrane potential (JC-1); format: cell-based, human; settings: 400 µM H2O2 4 h; compounds 24 h before at different concentrations
# Description: The fluorescent dye 5,5′,6,6′-tetrachloro-1,1′,3,3′-tetraethylbenzimidazolylcarbocyanine iodide (JC-1) was used for measuring MMP [89]. A decrease in fluorescence intensity represents mitochondrial membrane depolarization. For fluorescence ratio detection under oxidative stress conditions, 96-well culture black clear bottom plates were seeded with 3 × 10^3 SH-SY5Y cells, and after 24-h incubation, they were treated with the test compound and left out for 24 h. Then, the cells were exposed to different H2O2 concentrations for 4 h. After the incubation period, the cells were washed twice with Hanks buffer and then stained with 5 µM JC-1 in culture media in the dark in a CO2 incubator at 37 °C for 20 min. At the end of the dye incubation period, cells were washed three times with Hanks buffer, and 200 µL of fresh buffer was added. Cells were analyzed with a Varioskan microplate reader. J-aggregate red fluorescence intensity was measured at λex = 535 nm and λem = 595 nm, while λem = 485 nm and λem = 535 nm was used for J-monomer green fluorescence. Results were expressed as the ratio of fluorescence intensity of J-aggregates to J-monomers. All the experiments were performed three times in quadruplicate for each compound concentration.
# SH-SY5Y cells [5] = assay: Lipid peroxidation (MDA, TBARS); format: cell-based, human; settings: 250 µM H2O2 24 h; 10 and 20 µM 24 h before
# Description: For MDA studies, 2 × 10^5 SH-SY5Y cells were seeded in 6-well culture plates. After 24 h, cells were treated with the test compound and incubated for another 24 h. After compound treatment, cells were exposed to H2O2 for 24 h. Then, the cells were washed twice with cold 50 mM PBS buffer, detached, and lysed with lysis buffer, and TBA was added to each sample tube and vortexed. The reaction mixture was incubated at 96 °C for 60 min. After incubation, samples were cooled and centrifuged 10 min at 10^4 rpm. Samples were dispensed in 96-well culture black clear bottom plates, and fluorescence was measured with a Varioskan microplate reader at λex = 540 nm and λem = 590 nm wavelengths. Protein concentration was measured by the Bradford protein assay. The levels of MDA were expressed as nmol/mg protein. Experiments were performed four times in triplicate.
# SH-SY5Y cells [6] = assay: GSH/GSSG ratio; format: cell-based, human; settings: H2O2 500 µM 6 h; 10 and 20 µM 24 h before
# Description: GSH and GSSG levels were determined by the method of Vikas et al. with slight modifications. In summary, 2 × 10^5 SH-SY5Ycells were seeded in 6-well culture plates. After 24 h, cells were treated with the test compound and incubated for another 24 h. […] Then, cells were washed twice with cold 50 mM PBS buffer, detached, lysed with lysis buffer, and split into two samples: one for GSH analysis and the other for GSSG determination. For GSH analysis, 20 µL of ortho-phthaldehyde (OPT) 20 mg/mL and 280 µL of monobasic potassium phosphate buffer were added per 100 µL of sample replicate. Samples were vortexed and centrifuged at 4 °C at 13,000× g for 10 min. Afterward, 100 µL of supernatant per well was transferred to a black 96-well culture plate with a clear bottom. Fluorescence was measured in a Varioskan plate reader (λex = 360 nm; λem = 420 nm). Sample GSH concentrations were calculated from a standard calibration curve made by serial dilutions of GSH from 0 to 50 µM. […] Fluorescence was measured in a Varioskan plate reader (λex = 360 nm; λem = 420 nm). Sample GSSG concentrations were calculated from a standard calibration curve made by serial dilutions of GSSG from 0 to 200 µM.
smiles,measurement,setting,value
"O=C1CC(c2ccccc2)=Nc2ccccc2N1 [Compound 18, 4-Phenyl-1H-1,5-benzodiazepin-2(3H)-one]",IC50,[1]; 30-min incubation,187 ± 15.2 µM
same,ABTS Assay TEAC50,[1]; Equivalent antioxidant capacity at Trolox 50 mM,0.36
same,ABTS Assay TEAC100,[1]; Equivalent antioxidant capacity at Trolox 100 mM,0.21
same,IC50,HepG2 cells,224 ± 35 µM
same,"Neuroprotection, cell viability (MTT), 6-OHD model",SH-SY5Y cells [2],significant neuroprotection
same,"Neuroprotection, cell viability (MTT), MPP+ model",SH-SY5Y cells [3],small significant neuroprotection at 1 and 2 µM
same,MMP recovery,SH-SY5Y cells [4],10–25%
same,Effect on MDA levels,SH-SY5Y cells [5],significantly prevented
same,GSH/GSSG ratio,SH-SY5Y cells [6],"improved the GSH/GSSG ratios of cells under oxidative stress, although without statistical significance"
